# Measurements taken from ChEMBL document CHEMBL1135808, “A new type of mixed anhydride and its applications to the synthesis of 7-substituted 8-chloro-5,5-dioxoimidazo[1,2-b][1,4,2]benzodithiazines with in vitro antitumor activity” (2002).
# Tested on: T47D
# Test: In vitro total growth inhibition against breast cancer […] cell lines was reported.
# Assay type: functional
# Conditions: Homo sapiens, read-out: Log TGI (converted)
row,Structure (SMILES),TGI [µM]
1,O=C(Nc1nccs1)c1cc2c(cc1Cl)Sc1nccn1S2(=O)=O,64.6

# Tested on: SF-268
# Test: In vitro growth inhibition against CNS cancer SF-268 cell line was reported.
# Assay type: functional
# Conditions: Homo sapiens
row,Structure (SMILES),GI50 [µM]
1,O=C(Nc1nccs1)c1cc2c(cc1Cl)Sc1nccn1S2(=O)=O,19.1

# Tested on: PC-3
# Test: In vitro growth inhibition against prostate cancer PC-3 cell line was reported.
# Assay type: functional
# Conditions: Homo sapiens
row,Structure (SMILES),GI50 [µM]
1,O=C(Nc1nccs1)c1cc2c(cc1Cl)Sc1nccn1S2(=O)=O,17

# Tested on: MDA-MB-435
# Test: In vitro total growth inhibition against breast cancer MDA-MB-435 cell lines was reported.
# Conditions: Homo sapiens, read-out: Log TGI (converted)
row,Structure (SMILES),TGI [µM]
1,O=C(Nc1nccs1)c1cc2c(cc1Cl)Sc1nccn1S2(=O)=O,31.6

# Tested on: SR
# Test: In vitro total growth inhibition against leukemia SR cell lines was reported.
# Assay type: functional
# Conditions: Homo sapiens, read-out: Log TGI (converted)
row,Structure (SMILES),TGI [µM]
1,O=C(Nc1nccs1)c1cc2c(cc1Cl)Sc1nccn1S2(=O)=O,12

# Tested on: HL-60
# Test: In vitro growth inhibition against leukemia HL-60(TB) cell line was reported.
# Assay type: functional
# Conditions: Homo sapiens
row,Structure (SMILES),GI50 [µM]
1,O=C(Nc1nccs1)c1cc2c(cc1Cl)Sc1nccn1S2(=O)=O,13.5

# Tested on: NCI/ADR-RES
# Test: In vitro total growth inhibition against breast cancer NCI/ADR-RES cell lines was reported.
# Assay type: functional
# Conditions: Homo sapiens, read-out: Log TGI (converted)
row,Structure (SMILES),TGI [µM]
1,O=C(Nc1nccs1)c1cc2c(cc1Cl)Sc1nccn1S2(=O)=O,44.7

# Tested on: A549
# Test: In vitro total growth inhibition against non-small-cell lung cancer A 549/ATCC cell lines was reported.
# Assay type: functional
# Conditions: Homo sapiens, read-out: Log TGI (converted)
row,Structure (SMILES),TGI [µM]
1,O=C(Nc1nccs1)c1cc2c(cc1Cl)Sc1nccn1S2(=O)=O,63.1

# Tested on: OVCAR-4
# Test: In vitro growth inhibition against ovarian cancer OVCAR-4 cell line was reported.
# Assay type: functional
# Conditions: Homo sapiens
row,Structure (SMILES),GI50 [µM]
1,O=C(Nc1nccs1)c1cc2c(cc1Cl)Sc1nccn1S2(=O)=O,16.2

# Tested on: SW-620
# Test: In vitro growth inhibition against colon cancer SW620 cell line was reported.
# Assay type: functional
# Conditions: Homo sapiens
row,Structure (SMILES),GI50 [µM]
1,O=C(Nc1nccs1)c1cc2c(cc1Cl)Sc1nccn1S2(=O)=O,17

# Tested on: U-251
# Test: In vitro total growth inhibition against CNS cancer U251 cell lines was reported.
# Assay type: functional
# Conditions: Homo sapiens, read-out: Log TGI (converted)
row,Structure (SMILES),TGI [µM]
1,O=C(Nc1nccs1)c1cc2c(cc1Cl)Sc1nccn1S2(=O)=O,30.9

# Tested on: NCI-H226
# Test: In vitro total growth inhibition against non-small-cell lung cancer NCI-H226 cell lines was reported.
# Assay type: functional
# Conditions: Homo sapiens, read-out: Log TGI (converted)
row,Structure (SMILES),TGI [µM]
1,O=C(Nc1nccs1)c1cc2c(cc1Cl)Sc1nccn1S2(=O)=O,35.5

# Tested on: 786-0
# Test: Log of molar concentration leading to 50% cell death against renal cancer […] cell line was reported
# Assay type: functional
# Conditions: Homo sapiens, read-out: Log LC50 (the source's name) (converted)
row,Structure (SMILES),CC50 [µM]
1,O=C(Nc1nccs1)c1cc2c(cc1Cl)Sc1nccn1S2(=O)=O,53.7

# Tested on: A498
# Test: In vitro growth inhibition against renal cancer A498 cell line was reported.
# Assay type: functional
# Conditions: Homo sapiens
row,Structure (SMILES),GI50 [µM]
1,O=C(Nc1nccs1)c1cc2c(cc1Cl)Sc1nccn1S2(=O)=O,19.1

# Tested on: M14
# Test: In vitro growth inhibition against melanoma M14 cell line was reported.
# Assay type: functional
# Conditions: Homo sapiens
row,Structure (SMILES),GI50 [µM]
1,O=C(Nc1nccs1)c1cc2c(cc1Cl)Sc1nccn1S2(=O)=O,17.8

# Tested on: IGROV-1
# Test: In vitro growth inhibition against ovarian cancer IGROV1 cell line was reported.
# Assay type: functional
# Conditions: Homo sapiens
row,Structure (SMILES),GI50 [µM]
1,O=C(Nc1nccs1)c1cc2c(cc1Cl)Sc1nccn1S2(=O)=O,11.7

# Tested on: HCT-116
# Test: In vitro total growth inhibition against colon cancer HCT116 cell lines was reported.
# Assay type: functional
# Conditions: Homo sapiens, read-out: Log TGI (converted)
row,Structure (SMILES),TGI [µM]
1,O=C(Nc1nccs1)c1cc2c(cc1Cl)Sc1nccn1S2(=O)=O,29.5

# Tested on: KM12
# Test: In vitro growth inhibition against colon cancer KM12 cell line was reported.
# Assay type: functional
# Conditions: Homo sapiens
row,Structure (SMILES),GI50 [µM]
1,O=C(Nc1nccs1)c1cc2c(cc1Cl)Sc1nccn1S2(=O)=O,12.3

# Tested on: MDA-MB-435
# Test: In vitro growth inhibition against breast cancer MDA-MB-435 cell line was reported.
# Conditions: Homo sapiens
row,Structure (SMILES),GI50 [µM]
1,O=C(Nc1nccs1)c1cc2c(cc1Cl)Sc1nccn1S2(=O)=O,17.4

# Tested on: NCI-H322M
# Test: Log of molar concentration leading to 50% cell death against non-small-cell lung cancer NCI-H322M cell line was reported
# Assay type: functional
# Conditions: Homo sapiens, read-out: Log LC50 (the source's name) (converted)
row,Structure (SMILES),CC50 [µM]
1,O=C(Nc1nccs1)c1cc2c(cc1Cl)Sc1nccn1S2(=O)=O,64.6

# Tested on: MDA-MB-231
# Test: In vitro growth inhibition against breast cancer MDA-MB-231/ATCC cell line was reported.
# Assay type: functional
# Conditions: Homo sapiens
row,Structure (SMILES),GI50 [µM]
1,O=C(Nc1nccs1)c1cc2c(cc1Cl)Sc1nccn1S2(=O)=O,19.5

# Tested on: OVCAR-4
# Test: In vitro total growth inhibition against ovarian cancer OVCAR-4 cell lines was reported.
# Assay type: functional
# Conditions: Homo sapiens, read-out: Log TGI (converted)
row,Structure (SMILES),TGI [µM]
1,O=C(Nc1nccs1)c1cc2c(cc1Cl)Sc1nccn1S2(=O)=O,38.9

# Tested on: EKVX
# Test: Log of molar concentration leading to 50% cell death against non-small-cell lung cancer EKVX cell line was reported
# Assay type: functional
# Conditions: Homo sapiens, read-out: Log LC50 (the source's name) (converted)
row,Structure (SMILES),CC50 [µM]
1,O=C(Nc1nccs1)c1cc2c(cc1Cl)Sc1nccn1S2(=O)=O,97.7

# Tested on: PC-3
# Test: Log of molar concentration leading to 50% cell death against prostate cancer PC-3 cell line was reported
# Assay type: functional
# Conditions: Homo sapiens, read-out: Log LC50 (the source's name) (converted)
row,Structure (SMILES),CC50 [µM]
1,O=C(Nc1nccs1)c1cc2c(cc1Cl)Sc1nccn1S2(=O)=O,66.1

# Tested on: RXF 393
# Test: In vitro total growth inhibition against renal cancer RXF 393 cell lines was reported.
# Assay type: functional
# Conditions: Homo sapiens, read-out: Log TGI (converted)
row,Structure (SMILES),TGI [µM]
1,O=C(Nc1nccs1)c1cc2c(cc1Cl)Sc1nccn1S2(=O)=O,39.8

# Tested on: SF-295
# Test: In vitro growth inhibition against CNS cancer SF-295 cell line was reported.
# Assay type: functional
# Conditions: Homo sapiens
row,Structure (SMILES),GI50 [µM]
1,O=C(Nc1nccs1)c1cc2c(cc1Cl)Sc1nccn1S2(=O)=O,18.2

# Tested on: MOLT-4
# Test: In vitro total growth inhibition against leukemia MOLT-4 cell lines was reported.
# Assay type: functional
# Conditions: Homo sapiens, read-out: Log TGI (converted)
row,Structure (SMILES),TGI [µM]
1,O=C(Nc1nccs1)c1cc2c(cc1Cl)Sc1nccn1S2(=O)=O,41.7

# Tested on: TK-10
# Test: Log of molar concentration leading to 50% cell death against renal cancer TK-10 cell line was reported
# Assay type: functional
# Conditions: Homo sapiens, read-out: Log LC50 (the source's name) (converted)
row,Structure (SMILES),CC50 [µM]
1,O=C(Nc1nccs1)c1cc2c(cc1Cl)Sc1nccn1S2(=O)=O,63.1

# Tested on: TK-10
# Test: In vitro total growth inhibition against renal cancer TK-10 cell lines was reported.
# Assay type: functional
# Conditions: Homo sapiens, read-out: Log TGI (converted)
row,Structure (SMILES),TGI [µM]
1,O=C(Nc1nccs1)c1cc2c(cc1Cl)Sc1nccn1S2(=O)=O,34.7

# Tested on: RXF 393
# Test: Log of molar concentration leading to 50% cell death against renal cancer RXF 393 cell line was reported
# Assay type: functional
# Conditions: Homo sapiens, read-out: Log LC50 (the source's name) (converted)
row,Structure (SMILES),CC50 [µM]
1,O=C(Nc1nccs1)c1cc2c(cc1Cl)Sc1nccn1S2(=O)=O,83.2
